Reference: ChEMBL document CHEMBL1641564, “In vitro evaluation of 5-arylidene-2-thioxo-4-thiazolidinones active as aldose reductase inhibitors” (Bioorg Med Chem Lett, 2011)

Columns and labels:
[1] = molecular target: T1, Aldo-keto reductase family 1 member B1 (Homo sapiens, UniProt P15121); experiment: Inhibition of aldose reductase
[2] = molecular target: Aldo-keto reductase family 1 member B1 (Bos taurus, UniProt P16116); experiment: Inhibition of bovine lens aldose reductase assessed as inhibition of […] oxidation by non-linear regression analysis
[3] = molecular target: T1, Aldo-keto reductase family 1 member B1; experiment: Inhibition of aldose reductase at 50 uM
[4] = molecular target: T1, Aldo-keto reductase family 1 member B1; experiment: Inhibition of aldose reductase at 37 uM
[5] = molecular target: Aldo-keto reductase family 1 member B1 (Bos taurus) (UniProt P16116); experiment: Inhibition of bovine lens aldose reductase assessed as inhibition of […] oxidation at 11 uM by non-linear regression analysis
[6] = molecular target: Aldo-keto reductase family 1 member B1 (Bos taurus) (UniProt P16116); experiment: Inhibition of bovine lens aldose reductase assessed as inhibition of […] oxidation at 16 uM by non-linear regression analysis
[7] = molecular target: Aldo-keto reductase family 1 member B1 (Bos taurus) (UniProt P16116); experiment: Inhibition of bovine lens aldose reductase assessed as inhibition of […] oxidation at 13 uM by non-linear regression analysis

Row | Structure (SMILES) | IC50 [1] [nM] | IC50 [2] [nM] | other results
1 | COc1cccc(/C=C2\SC(=O)NC2=O)c1 | 13300 |  | 
2 | O=C(O)CN1C(=O)/C(=C/c2cccc(OCc3ccccc3)c2)SC1=S |  | 130 | 
3 | O=C1NC(=O)/C(=C/c2cccc3ccccc23)S1 | 10700 |  | 
4 | O=C(O)CN1C(=O)/C(=C/c2ccc(OCc3ccccc3)cc2)SC1=S |  | 190 | 
5 | O=C1N=C(O)S/C1=C\c1ccc(OCc2ccccc2)cc1 |  |  | inhibition [3]: 10%
6 | O=C1NC(=S)S/C1=C\c1cccc(Oc2ccccc2)c1 |  | 2940 | 
7 | O=C(O)CN1C(=O)S/C(=C\c2ccc(OCc3ccccc3)cc2)C1=O | 280 |  | 
8 | O=C(O)CN1C(=O)/C(=C/c2cccc(Oc3ccccc3)c2)SC1=S |  | 410 | 
9 | O=C1NC(=S)S/C1=C\c1cccc2ccccc12 |  | 2270 | 
10 | COc1ccc(/C=C2\SC(=O)NC2=O)cc1 | 40800 |  | 
11 | O=C1NC(=S)S/C1=C\c1ccc(O)cc1 |  | 4550 | 
12 | O=C1N=C(O)S/C1=C\c1ccc(Oc2ccccc2)cc1 |  |  | inhibition [4]: 41%
13 | O=C1NC(=O)/C(=C/c2cccc(Oc3ccccc3)c2)S1 | 6140 |  | 
14 | COc1cccc(/C=C2\SC(=S)NC2=O)c1 |  | 6240 | 
15 | O=C(O)CN1C(=O)/C(=C/c2ccc(Oc3ccccc3)cc2)SC1=S |  | 110 | 
16 | O=C(O)CN1C(=O)S/C(=C\c2ccc(Oc3ccccc3)cc2)C1=O | 820 |  | 
17 | O=C1NC(=S)S/C1=C\c1ccc(OCc2ccccc2)cc1 |  |  | inhibition [5]: 7%
18 | COc1cccc(/C=C2\SC(=O)N(CC(=O)O)C2=O)c1 | 480 |  | 
19 | COc1ccc(/C=C2\SC(=S)NC2=O)cc1 |  | 5230 | 
20 | O=C1NC(=O)/C(=C/c2ccc(-c3ccccc3)cc2)S1 |  |  | inhibition [3]: 20%
21 | O=C(O)CN1C(=O)S/C(=C\c2cccc(Oc3ccccc3)c2)C1=O | 130 |  | 
22 | O=C1NC(=O)/C(=C/c2ccc(O)cc2)S1 | 8960 |  | 
23 | O=C1NC(=S)S/C1=C\c1ccc2ccccc2c1 |  |  | inhibition [6]: 40%
24 | COc1cccc(/C=C2\SC(=S)N(CC(=O)O)C2=O)c1 |  | 150 | 
25 | O=C1NC(=S)S/C1=C\c1cccc(OCc2ccccc2)c1 |  | 1080 | 
26 | O=C1NC(=S)S/C1=C\c1ccc(-c2ccccc2)cc1 |  |  | inhibition [7]: 28%
27 | O=C1NC(=S)S/C1=C\c1ccc(Oc2ccccc2)cc1 |  | 1100 | 
